Assay results as given in article PMC9250534, “Synthesis and direct assay of large macrocycle diversities by combinatorial late-stage modification at picomole scale” (Nature Communications, 2022).
Values joined by “and” are separate entries in the source; they are usually repeats but may differ in a detail not shown here. Equal values may be shown once. Read-outs that look alike come from different tables or passages of the source. Each block holds one compound with its values, some of them ahead of it.

Legend:
MDM2 [1] = molecular target: T1, MDM2 (Homo sapiens, UniProt Q00987); experiment: MDM2 binding (FP53 displacement) by HPLC fractions of resynthesized hit reactions
T1 sequence (Q00987 whole entry): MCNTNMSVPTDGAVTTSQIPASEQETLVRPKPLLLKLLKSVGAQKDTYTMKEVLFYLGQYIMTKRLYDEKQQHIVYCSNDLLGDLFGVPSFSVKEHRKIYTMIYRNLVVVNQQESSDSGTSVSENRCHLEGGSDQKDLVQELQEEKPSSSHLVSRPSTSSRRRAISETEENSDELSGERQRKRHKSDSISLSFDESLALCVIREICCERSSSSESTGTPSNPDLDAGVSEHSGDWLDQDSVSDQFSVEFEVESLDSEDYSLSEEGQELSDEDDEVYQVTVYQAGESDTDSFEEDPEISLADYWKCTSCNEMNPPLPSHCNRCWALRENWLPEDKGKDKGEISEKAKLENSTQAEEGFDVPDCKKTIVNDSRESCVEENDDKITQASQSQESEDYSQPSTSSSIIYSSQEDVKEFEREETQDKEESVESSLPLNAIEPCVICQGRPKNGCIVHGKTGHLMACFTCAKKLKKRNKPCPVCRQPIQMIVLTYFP
Experimental: For hits from the MDM2 screen, reactions were performed in the same way but at a 50 nmol scale, and purified with the same method but a 10–80% gradient of solvent B and over 22 min. Fractions were lyophilized and dissolved in 40 μL of DMSO, 160 μL of water was added, and 5 μL of each fraction was transferred to a 384-well plate (Nunc, 264705), and 15 μL of premixed MDM2/FP53 peptide were added (final concentrations: 1.2 μM MDM2, 50 nM FP53, 5% DMSO).

MDM2 [2] = molecular target: T1, MDM2; experiment: IC50 of purified MDM2-binding macrocycles, fluorescence polarization competition with FP53; settings: for IC50: HPLC-purified macrocycle, FP displacement of fluorescent reporter peptide; for anisotropy: replicates 1-3
Experimental: Volumes of 5 μL of purified macrocycles (20 mM in DMSO) were serial diluted two-fold in 100% DMSO in a low dead-volume ECHO source plate. Using acoustic droplet transfer, 150 nL of each dilution was transferred to a 384 well low volume polystyrene plate (Nunc, 264705). […] Fluorescence anisotropy was measured as described above. The percentage of bound inhibitor was calculated using the following equation4 %boundinhibitor=N−X/N−P×100 where N is the average anisotropy of the DMSO controls, X is the anisotropy value obtained for each well, and P is the average anisotropy of the unbound probe. The IC50s were determined by plotting the percent of bound inhibitor against the logarithm of the corresponding macrocycle concentration, and the curves were fitted in GraphPad Prism 6 as described above.

MDM2 [3] = molecular target: T1, MDM2; experiment: MDM2 binding screen of Libraries 3 and 4: displacement of fluorescent probe F-M8 at 750 nM macrocycle; settings: 750 nM macrocycle; crude reaction; probe F-M8
Outline: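 Competition with nutlin-3a was run using the fluorescein conjugate. Library members came from scaffolds reacted 6 h at room temperature with carboxylic acids (20 equiv.), HBTU and DABCO in DMSO. Quenching was overnight in Tris-Cl pH 7.4 buffer with 0.01% Tween20.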

MDM2 [4] = molecular target: T1, MDM2; experiment: Competition binding of M10 and nutlin-3a (F-M10 or FP53 probe displacement from MDM2, FP); settings: for F-M10 displacement (values are anisotropy): F-M10 macrocycle probe; for F-M10 displacement (values are anisotropy) / FP53 displacement (values are anisotropy): duplicates -1/-2; for FP53 displacement (values are anisotropy): FP53 linear peptide probe
Experimental: With the fluorescein conjugate, we also performed a competition experiment with nutlin-3a that binds to a defined hydrophobic pocket of MDM2[34] and is a precursor of nutlin-based clinical candidates.
Supplementary Figure 13. Studying the binding site of M10 by competition binding
by fluorescence polarization. The displacement was measured in two independent experiments
The displacement was measured in two

Fraction bound (fraction fluorescent probe displaced) (MDM2 [1]; HPLC Fraction 1 of acylation reaction): 0.06
Fraction bound (fraction fluorescent probe displaced) (MDM2 [1]; HPLC Fraction 2 of acylation reaction): 0.33
Fraction bound (fraction fluorescent probe displaced) (MDM2 [1]; HPLC Fraction 3 of acylation reaction): 0.08
Fraction bound (fraction fluorescent probe displaced) (MDM2 [1]; HPLC Fraction 4 of acylation reaction): -0.000869
Fraction bound (fraction fluorescent probe displaced) (MDM2 [1]; HPLC Fraction 5 of acylation reaction): -0.0216
Fraction bound (fraction fluorescent probe displaced) (MDM2 [1]; HPLC Fraction 6 of acylation reaction): 0.02
Fraction bound (fraction fluorescent probe displaced) (MDM2 [1]; HPLC Fraction 7 of acylation reaction): 0.02
Fraction bound (fraction fluorescent probe displaced) (MDM2 [1]; HPLC Fraction 8 of acylation reaction): 0.02
Fraction bound (fraction fluorescent probe displaced) (MDM2 [1]; HPLC Fraction 9 of acylation reaction): 0.02
Fraction bound (fraction fluorescent probe displaced) (MDM2 [1]; HPLC Fraction 10 of acylation reaction): 0.08
Fraction bound (fraction fluorescent probe displaced) (MDM2 [1]; HPLC Fraction 11 of acylation reaction): -0.000869
Fraction bound (fraction fluorescent probe displaced) (MDM2 [1]; HPLC Fraction 12 of acylation reaction): -0.06
Fraction bound (fraction fluorescent probe displaced) (MDM2 [1]; HPLC Fraction 13 of acylation reaction): -0.0422
Fraction bound (fraction fluorescent probe displaced) (MDM2 [1]; HPLC Fraction 14 of acylation reaction): 0.29
Fraction bound (fraction fluorescent probe displaced) (MDM2 [1]; HPLC Fraction 15 of acylation reaction): -0.0216
Fraction bound (fraction fluorescent probe displaced) (MDM2 [1]; HPLC Fraction 16 of acylation reaction): -0.10
Fraction bound (fraction fluorescent probe displaced) (MDM2 [1]; HPLC Fraction 17 of acylation reaction): -0.10
Fraction bound (fraction fluorescent probe displaced) (MDM2 [1]; HPLC Fraction 18 of acylation reaction): -0.15
Fraction bound (fraction fluorescent probe displaced) (MDM2 [1]; HPLC Fraction 19 of acylation reaction): -0.25
Fraction bound (fraction fluorescent probe displaced) (MDM2 [1]; HPLC Fraction 20 of acylation reaction): -0.21
IC50 (MDM2 [2]; average of 3 replicates, read-out: IC50 Average): 3.7 µM
IC50 (MDM2 [2]; replicate 1, read-out: IC50 Replicate 1): 3.8 µM
IC50 (MDM2 [2]; replicate 2, read-out: IC50 Replicate 2): 2 µM
IC50 (MDM2 [2]; replicate 3, read-out: IC50 Replicate 3): 5.3 µM
displacement of fluorescent peptide probe from MDM2 (MDM2 [2]; HPLC-purified macrocycles, FP competition): efficiently displaced
anisotropy (MDM2 [2]; Log[Macrocycle] M -4.0): 39 and 34 and 33
anisotropy (MDM2 [2]; Log[Macrocycle] M -4.3): 47 and 37 and 40
anisotropy (MDM2 [2]; Log[Macrocycle] M -4.6): 50 and 42 and 45
anisotropy (MDM2 [2]; Log[Macrocycle] M -4.9): 54 and 48 and 49
anisotropy (MDM2 [2]; Log[Macrocycle] M -5.2): 60 and 47 and 53
anisotropy (MDM2 [2]; Log[Macrocycle] M -5.5): 68 and 53 and 61
anisotropy (MDM2 [2]; Log[Macrocycle] M -5.8): 73 and 55 and 63
anisotropy (MDM2 [2]; Log[Macrocycle] M -6.1): 81 and 61 and 69
anisotropy (MDM2 [2]; Log[Macrocycle] M -6.4): 87 and 68 and 75
anisotropy (MDM2 [2]; Log[Macrocycle] M -6.7): 89 and 72 and 77
anisotropy (MDM2 [2]; Log[Macrocycle] M -7.0): 92 and 75 and 82
anisotropy (MDM2 [2]; Log[Macrocycle] M -7.3): 92 and 72 and 85
anisotropy (MDM2 [2]; Log[Macrocycle] M -7.6): 97 and 81 and 87
anisotropy (MDM2 [2]; Log[Macrocycle] M -7.9): 94 and 83 and 85
anisotropy (MDM2 [2]; Log[Macrocycle] M -8.2): 94 and 79 and 89
anisotropy (MDM2 [2]; Log[Macrocycle] M -8.5): 96 and 78 and 86
Compound: O=C(NC[C@@H]1NC(=O)[C@H]2CCCN(C2)C(=O)CCSSCCNC(=O)[C@H](Cc2c[nH]c3ccccc23)NC1=O)c1ccc(Cl)cc1 [M7]

displacement of fluorescent probe from MDM2 (MDM2 [3]): 84%
F-M10 displacement (values are anisotropy) (MDM2 [4]; Log[Inhibitor] M -4.0): 23 and 19
F-M10 displacement (values are anisotropy) (MDM2 [4]; Log[Inhibitor] M -4.3): 19 and 11
F-M10 displacement (values are anisotropy) (MDM2 [4]; Log[Inhibitor] M -4.6): 18 and 15
F-M10 displacement (values are anisotropy) (MDM2 [4]; Log[Inhibitor] M -4.9): 18 and 10
F-M10 displacement (values are anisotropy) (MDM2 [4]; Log[Inhibitor] M -5.2): 14 and 12
F-M10 displacement (values are anisotropy) (MDM2 [4]; Log[Inhibitor] M -5.5): 15 and 12
F-M10 displacement (values are anisotropy) (MDM2 [4]; Log[Inhibitor] M -5.8): 18 and 9
F-M10 displacement (values are anisotropy) (MDM2 [4]; Log[Inhibitor] M -6.1): 17 and 10
F-M10 displacement (values are anisotropy) (MDM2 [4]; Log[Inhibitor] M -6.4): 20 and 15
F-M10 displacement (values are anisotropy) (MDM2 [4]; Log[Inhibitor] M -6.7): 24 and 19
F-M10 displacement (values are anisotropy) (MDM2 [4]; Log[Inhibitor] M -7.0): 30 and 21
F-M10 displacement (values are anisotropy) (MDM2 [4]; Log[Inhibitor] M -7.3): 40 and 26
F-M10 displacement (values are anisotropy) (MDM2 [4]; Log[Inhibitor] M -7.6): 46 and 32
F-M10 displacement (values are anisotropy) (MDM2 [4]; Log[Inhibitor] M -7.9): 52 and 42
F-M10 displacement (values are anisotropy) (MDM2 [4]; Log[Inhibitor] M -8.2): 57 and 39
F-M10 displacement (values are anisotropy) (MDM2 [4]; Log[Inhibitor] M -8.5): 57 and 42
FP53 displacement (values are anisotropy) (MDM2 [4]; Log[Inhibitor] M -4.0): 35 and 39
FP53 displacement (values are anisotropy) (MDM2 [4]; Log[Inhibitor] M -4.3): 34 and 40
FP53 displacement (values are anisotropy) (MDM2 [4]; Log[Inhibitor] M -4.6): 35 and 36
FP53 displacement (values are anisotropy) (MDM2 [4]; Log[Inhibitor] M -4.9): 31 and 36
FP53 displacement (values are anisotropy) (MDM2 [4]; Log[Inhibitor] M -5.2): 32 and 39
FP53 displacement (values are anisotropy) (MDM2 [4]; Log[Inhibitor] M -5.5): 31 and 40
FP53 displacement (values are anisotropy) (MDM2 [4]; Log[Inhibitor] M -5.8): 30 and 37
FP53 displacement (values are anisotropy) (MDM2 [4]; Log[Inhibitor] M -6.1): 32 and 36
FP53 displacement (values are anisotropy) (MDM2 [4]; Log[Inhibitor] M -6.4): 31 and 40
FP53 displacement (values are anisotropy) (MDM2 [4]; Log[Inhibitor] M -6.7): 42 and 51
FP53 displacement (values are anisotropy) (MDM2 [4]; Log[Inhibitor] M -7.0): 51 and 55
FP53 displacement (values are anisotropy) (MDM2 [4]; Log[Inhibitor] M -7.3): 54 and 63
FP53 displacement (values are anisotropy) (MDM2 [4]; Log[Inhibitor] M -7.6): 60 and 67
FP53 displacement (values are anisotropy) (MDM2 [4]; Log[Inhibitor] M -7.9): 60 and 65
FP53 displacement (values are anisotropy) (MDM2 [4]; Log[Inhibitor] M -8.2): 66 and 67
FP53 displacement (values are anisotropy) (MDM2 [4]; Log[Inhibitor] M -8.5): 63 and 67
Compound: O=C(/C=C/c1ccc2c(c1)OCO2)NC[C@@H]1NC(=O)[C@H]2CCCN(C2)C(=O)CCSSCCNC(=O)[C@H](Cc2c[nH]c3ccccc23)NC1=O [M10]

F-M10 displacement (values are anisotropy) (MDM2 [4]; Log[Inhibitor] M -4.0): 71 and 53
F-M10 displacement (values are anisotropy) (MDM2 [4]; Log[Inhibitor] M -4.3): 66 and 52
F-M10 displacement (values are anisotropy) (MDM2 [4]; Log[Inhibitor] M -4.6): 66 and 55
F-M10 displacement (values are anisotropy) (MDM2 [4]; Log[Inhibitor] M -4.9): 62 and 56
F-M10 displacement (values are anisotropy) (MDM2 [4]; Log[Inhibitor] M -5.2): 69 and 55
F-M10 displacement (values are anisotropy) (MDM2 [4]; Log[Inhibitor] M -5.5): 63 and 51
F-M10 displacement (values are anisotropy) (MDM2 [4]; Log[Inhibitor] M -5.8): 63 and 55
F-M10 displacement (values are anisotropy) (MDM2 [4]; Log[Inhibitor] M -6.1): 68 and 53
F-M10 displacement (values are anisotropy) (MDM2 [4]; Log[Inhibitor] M -6.4): 65 and 54
F-M10 displacement (values are anisotropy) (MDM2 [4]; Log[Inhibitor] M -6.7): 64 and 54
F-M10 displacement (values are anisotropy) (MDM2 [4]; Log[Inhibitor] M -7.0): 64 and 51
F-M10 displacement (values are anisotropy) (MDM2 [4]; Log[Inhibitor] M -7.3): 64 and 50
F-M10 displacement (values are anisotropy) (MDM2 [4]; Log[Inhibitor] M -7.6): 67 and 53
F-M10 displacement (values are anisotropy) (MDM2 [4]; Log[Inhibitor] M -7.9): 61 and 50
F-M10 displacement (values are anisotropy) (MDM2 [4]; Log[Inhibitor] M -8.2): 66 and 47
F-M10 displacement (values are anisotropy) (MDM2 [4]; Log[Inhibitor] M -8.5): 66 and 47
FP53 displacement (values are anisotropy) (MDM2 [4]; Log[Inhibitor] M -4.0): 13 and 15
FP53 displacement (values are anisotropy) (MDM2 [4]; Log[Inhibitor] M -4.3): 21 and 16
FP53 displacement (values are anisotropy) (MDM2 [4]; Log[Inhibitor] M -4.6): 13 and 14
FP53 displacement (values are anisotropy) (MDM2 [4]; Log[Inhibitor] M -4.9): 14 and 13
FP53 displacement (values are anisotropy) (MDM2 [4]; Log[Inhibitor] M -5.2): 15 and 11
FP53 displacement (values are anisotropy) (MDM2 [4]; Log[Inhibitor] M -5.5): 15 and 18
FP53 displacement (values are anisotropy) (MDM2 [4]; Log[Inhibitor] M -5.8): 15 and 14
FP53 displacement (values are anisotropy) (MDM2 [4]; Log[Inhibitor] M -6.1): 19 and 23
FP53 displacement (values are anisotropy) (MDM2 [4]; Log[Inhibitor] M -6.4): 30 and 27
FP53 displacement (values are anisotropy) (MDM2 [4]; Log[Inhibitor] M -6.7): 43 and 49
FP53 displacement (values are anisotropy) (MDM2 [4]; Log[Inhibitor] M -7.0): 56 and 61
FP53 displacement (values are anisotropy) (MDM2 [4]; Log[Inhibitor] M -7.3): 64 and 66
FP53 displacement (values are anisotropy) (MDM2 [4]; Log[Inhibitor] M -7.6): 64 and 68
FP53 displacement (values are anisotropy) (MDM2 [4]; Log[Inhibitor] M -7.9): 66 and 67
FP53 displacement (values are anisotropy) (MDM2 [4]; Log[Inhibitor] M -8.2): 65
FP53 displacement (values are anisotropy) (MDM2 [4]; Log[Inhibitor] M -8.5): 69 and 66
Compound: Nutlin

competition with fluorescein conjugate of M10 for MDM2 binding (MDM2 [4]; FP competition experiment): did not compete
Compound: nutlin-3a [reference compound]
